The NIST ThermoML archive (doi:10.1016/j.jct.2018.05.019)
± gives the expanded uncertainty stated by the source.

Settings: 101.33 kPa, Liquid, transient hot wire

CCCCCC(=O)OC [methyl hexanoate]
Settings	thermal conductivity [W/m/K]
263.83 K	0.1482 ± 0.006
268.65 K	0.1472 ± 0.0059
273.7 K	0.1448 ± 0.0058
278.59 K	0.1439 ± 0.0058
283.75 K	0.142 ± 0.0057
288.67 K	0.1405 ± 0.0057
293.64 K	0.1395 ± 0.0056
298.72 K	0.1376 ± 0.0055
303.63 K	0.1367 ± 0.0055
308.61 K	0.1344 ± 0.0054
313.6 K	0.1336 ± 0.0054
321.08 K	0.1315 ± 0.0053
328.54 K	0.1301 ± 0.0052
333.52 K	0.1284 ± 0.0052
338.55 K	0.1269 ± 0.0051
343.49 K	0.1259 ± 0.0051
348.48 K	0.1243 ± 0.005
353.7 K	0.1231 ± 0.005
358.38 K	0.1219 ± 0.0049
363.41 K	0.1205 ± 0.0049
368.5 K	0.1191 ± 0.0048

CCCCCCCC(=O)OC [methyl octanoate]
Settings	thermal conductivity [W/m/K]
273.56 K	0.145 ± 0.0059
278.48 K	0.1446 ± 0.0059
283.44 K	0.1428 ± 0.0058
288.35 K	0.1423 ± 0.0058
293.42 K	0.1405 ± 0.0057
298.33 K	0.1395 ± 0.0057
303.21 K	0.1387 ± 0.0057
308.29 K	0.1374 ± 0.0056
313.29 K	0.1361 ± 0.0056
318.22 K	0.1348 ± 0.0055
323.2 K	0.1335 ± 0.0055
328.3 K	0.132 ± 0.0054
333.41 K	0.1304 ± 0.0053
338.32 K	0.1294 ± 0.0053
343.27 K	0.1285 ± 0.0053
348.12 K	0.1275 ± 0.0052
353.23 K	0.126 ± 0.0052
358.28 K	0.1246 ± 0.0051
363.09 K	0.1238 ± 0.0051
368.27 K	0.1223 ± 0.005
373.24 K	0.1212 ± 0.005
378.21 K	0.1196 ± 0.0049
383.17 K	0.1189 ± 0.0049
388.44 K	0.1173 ± 0.0048
393.54 K	0.116 ± 0.0047

CCCCCCCCC(=O)OC [methyl nonanoate]
Settings	thermal conductivity [W/m/K]
278.44 K	0.1448 ± 0.0059
283.5 K	0.1441 ± 0.0059
288.5 K	0.1428 ± 0.0058
293.36 K	0.1418 ± 0.0058
298.3 K	0.141 ± 0.0058
303.31 K	0.1393 ± 0.0057
308.24 K	0.1387 ± 0.0057
313.3 K	0.1371 ± 0.0056
318.29 K	0.1365 ± 0.0056
323.25 K	0.1347 ± 0.0055
328.25 K	0.1337 ± 0.0055
333.06 K	0.1327 ± 0.0054
338.16 K	0.1313 ± 0.0054
343.23 K	0.1299 ± 0.0053
348.07 K	0.1289 ± 0.0053
353.12 K	0.1277 ± 0.0052
358.24 K	0.1263 ± 0.0052
363.07 K	0.1256 ± 0.0051
368.1 K	0.1242 ± 0.0051
373.11 K	0.1227 ± 0.005
378.24 K	0.1213 ± 0.005
383.21 K	0.1207 ± 0.0049

CCCC(=O)OC [methyl butanoate]
Settings	thermal conductivity [W/m/K]
283.34 K	0.1459 ± 0.0059
288.3 K	0.1442 ± 0.0058
293.39 K	0.1416 ± 0.0057
297.41 K	0.1401 ± 0.0056
298.44 K	0.1397 ± 0.0056
301.3 K	0.1391 ± 0.0056
305.42 K	0.1372 ± 0.0055
309.31 K	0.136 ± 0.0055
313.29 K	0.1353 ± 0.0054
318.38 K	0.1333 ± 0.0054
323.35 K	0.1314 ± 0.0053
328.55 K	0.1295 ± 0.0052
333.25 K	0.128 ± 0.0052
338.4 K	0.1261 ± 0.0051
343.25 K	0.1249 ± 0.005
348.24 K	0.1233 ± 0.005
353.35 K	0.1215 ± 0.0049
358.18 K	0.1207 ± 0.0049

O [water]
Settings	thermal conductivity [W/m/K]
293.09 K	0.6056 ± 0.024
299.55 K	0.613 ± 0.025
309.83 K	0.6313 ± 0.025
314.96 K	0.6399 ± 0.026
319.56 K	0.6399 ± 0.026
324.64 K	0.6492 ± 0.026
332.53 K	0.6555 ± 0.026
339.33 K	0.657 ± 0.026
340.41 K	0.6654 ± 0.027
349.41 K	0.6723 ± 0.027

CCCCC(=O)OC [methyl pentanoate]
Settings	thermal conductivity [W/m/K]
285.55 K	0.143 ± 0.0058
290.39 K	0.1405 ± 0.0057
295.51 K	0.1385 ± 0.0056
298.99 K	0.1373 ± 0.0055
305.5 K	0.1356 ± 0.0055
312.35 K	0.1336 ± 0.0054
320.42 K	0.1313 ± 0.0053
327.35 K	0.1295 ± 0.0052
333.5 K	0.1272 ± 0.0051
340.41 K	0.1246 ± 0.005
348.36 K	0.1229 ± 0.005
355.39 K	0.1212 ± 0.0049
362.16 K	0.1194 ± 0.0048

CCO [ethanol]
Settings	thermal conductivity [W/m/K]
276.51 K	0.1719 ± 0.0069
280.8 K	0.1687 ± 0.0068
284.27 K	0.1699 ± 0.0068
290.37 K	0.1677 ± 0.0067
293.43 K	0.1658 ± 0.0067
